Values belong to the compound of their own block, whether it stands above or below them.
How the values were obtained:
Aβ aggregates = molecular target: T1, Aβ aggregates (Homo sapiens, UniProt P05067); assay: Autoradiography binding to Aβ aggregates in APP/PS1 mouse brain sections; details: 1 nM radioligand, 12-month old heterozygous APP/PS1 mouse brain, compared with wild-type littermate
T1 construct: from tissue; host or cells: brain sections of 12 month old heterozygous APP/PS1 mice
Excerpt: Generation of tritiated compound 1, Method 1, for autoradiography studies was achieved by treating phenolic Compound 2 of Method 2 with tritiated methyl nosylate and a suitable base in N,N-dimethylformamide Purification by HPLC gave the tritiated compound in high radiochemical purity.
Brains were extracted from 12 month old heterozygous APP/PS1 animals (J. Neurochemistry 2009, 108, 1177-1186) and quickly frozen on dry ice in small weigh boats, wrapped with tin foil and stored in zip-lock bags at −80° C. for sectioning. Using a Leica CM3050S cryostat, 20 μm thick sections were generated representing the hippocampus (Bregma −1.34/−3.80) and the cortex/striatum (Bregma 1.54/−0.94). […]
10-[^3H]-methoxy-N-(pyridin-3-yl)-7-thia-2,5-diazatricyclo[6.4.0.0^2,6]dodeca-1(12),3,5,8,10-pentaene-4-carboxamide binding was determined in brain sections of a 12 month old APP/PS1 mouse and a WT littermate. […] Non-specific binding was determined for each radioligand in the presence of 1 μM of respective, cold ligand equivalent. […]
Quantification and Analysis: Signal intensity (cpm/mm^2) was measured for each brain section using Beta Vision+software. Specific (displaceable) binding, expressed in cpm/mm^2, was defined by the difference between total and non-specific binding and calculated as follows: (Total non-specific)/Total×100%. […]

Q46 protein aggregates = molecular target: T2, Q46 protein aggregates (Homo sapiens, UniProt P42858); assay: Q46 Radioligand Binding Assay (RBA), displacement of [^3H3]MK-3328; details: 10 nM [^3H3]MK-3328, 5 μM Q46 protein aggregates
T2 construct: fused on or other part: An N-terminal GST tag, cleaved off with thrombin before the assay to trigger aggregation
Procedure: For radioligand binding assays (RBA) GST-Q46 protein was generated based on a previous publication (Scherzinger et al. Cell, Vol. 90, 549-558, Aug. 8, 1997). For experiments 33 μM GST-Q46 was incubated with 150 μg/mL thrombin in assay buffer (150 mM NaCl, 50 mM Tris pH 8.0) and 2 mM CaCl2 for 16 hours at 37° C. Aggregated Q46 was pelleted by centrifugation for 5 minutes at 13,000 rpm in a bench top centrifuge and re-dissolved in the same volume of assay buffer. Test compounds were prepared by titration in DMSO at 11 concentrations from 33 μM to 1 nM. For the RBA, Q46 protein aggregates and test compounds were pre-incubated in assay buffer for 20 minutes at room temperature, in 140 μL/well in a 96-well plate (pp, round bottom). Then, ligand was added in 10 μL/well and incubated for 60 minutes at 37° C. Final assay concentrations were 1 μM to 30 pM test compound, 5 μM Q46 protein (equivalent monomer concentration) and 10 nM ligand [^3H3]MK-3328 (Harrision et al., ACS Med. Chem. Lett., 2 (2011), pp 498-502). Samples were transferred onto GF/B filter plates and washed 2× with 200 μL PBS using a Filtermate Harvester. After drying filter plates for 1 hour at 37° C., the back of the plates was sealed with foil and 30 μl/well scintillation fluid (Packard MicroScint 40) was added, incubated for incubated for 15 minutes in the dark and counted in a TopCount reader. For analysis, replicate data from independent assay plates were normalized towards 0% and 100% inhibition using control wells of vehicle (0% inhibition) and 3 μM unlabelled MK-3328 (100% inhibition). IC50 values were determined with a sigmoidal inhibition model with four variables (top, bottom, slope, IC50) in a global fit using the normalized replicate data.

mHTT aggregates = assay: Autoradiography of mHTT aggregates in R6/2 mouse brain; type: binding; details: 0.5 nM, 10 week old R6/2 mouse brain, compared with wild-type littermate
[1] = tested on: recombinant tau and amyloid β1-42 (Aβ1-42) aggregates; details: recombinant tau and Aβ1-42 aggregates; cited from earlier work
[2] = tested on: NFT in sections of AD brain tissue; details: in vitro autoradiography and fluorescent staining; cited from earlier work
[3] = tested on: zQ175 knock-in mice (cortex, hippocampus, striatum, cerebellum); assay: In vivo PET imaging in a knock-in model of Huntington's disease; design: species or system mouse; details: for % SUV: Mean ± SD
Procedure: ^11C-labeled Compound 1 of Method 1 was evaluated for its ability to penetrate the central nervous system of mice following systemic administration, and its binding to the cerebellum, striatum, hippocampus, and cortex was quantitated. Three groups of animals were compared: wild-type, and mice that were heterozygous or homozygous for the zQ175 knock-in allele. (Menalled L. B. et al. Comprehensive behavioral and molecular characterization of a new knock-in mouse model of Huntington's disease: zQ175. PloS One 2012, 7, e49838). Forty-eight nine months old animals (16 WT, 16 heterozygous and 16 homozygous zQ175) were obtained from The Jackson Laboratory, USA. The animals were housed at the animal department of Karolinska University Hospital in a temperature (±21° C.) and humidity (±40%) controlled environment on a 12 hour light/dark cycle (lights on 7:00 AM) with access to food and water ad libitum. Animals were allowed at least one week to habituate to the animal department before the start of the imaging sessions. All experiments were conducted during the light phase of the cycle.
Animals were anesthetized with inhalation of isoflurane (4-5% isoflurane in oxygen). After induction of anesthesia, the isoflurane concentration was lowered to 1.5-2% in 50/50 air/oxygen and the animals were positioned in the scanner in a designated mouse bed. A cannula was inserted in the tail vein through which the radioligand was administered. A 63-minute dynamic PET scan was initiated immediately upon intravenous injection of the radioligand. Upon completion of the imaging sessions, each animal was returned to its cage.
The acquired list mode data, was reconstructed into 25 timeframes (63 minute scan=4×10 s, 4×20 s, 4×60 s, 7×180 s, 6×360 s). The image reconstruction was made with a fully 3-dimensional maximum-likelihood expectation maximization algorithm (MLEM) with 20 iterations, without scatter and attenuation correction. The reconstructed dynamic PET images were co-registered to an inbuilt mouse MRI template available in PMOD, which also incorporates volumes of interest (VOI's) sets (PMOD Technologies Ltd., Zurich, Switzerland). With the help of these VOI sets, decay corrected time activity curves (TAC) were generated. The regional brain uptake values were expressed as percent standard uptake value (% SUV), which normalizes for injected radioactivity and body weight. In addition, the area under the curve (AUC) was calculated. The selected regions of interest (ROI) were: cortex, hippocampus, striatum and cerebellum.
The average % SUV and AUC values for the ^11C-labeled Compound 1 of Method 1 in the four brain regions, for the three groups of mice, are shown in Table 23. […] FIG. 3 presents the AUC values for the three groups of animals in the four regions of the brain.

T2 sequence (P42858 with tags, fused parts or gaps with the stated changes, form open): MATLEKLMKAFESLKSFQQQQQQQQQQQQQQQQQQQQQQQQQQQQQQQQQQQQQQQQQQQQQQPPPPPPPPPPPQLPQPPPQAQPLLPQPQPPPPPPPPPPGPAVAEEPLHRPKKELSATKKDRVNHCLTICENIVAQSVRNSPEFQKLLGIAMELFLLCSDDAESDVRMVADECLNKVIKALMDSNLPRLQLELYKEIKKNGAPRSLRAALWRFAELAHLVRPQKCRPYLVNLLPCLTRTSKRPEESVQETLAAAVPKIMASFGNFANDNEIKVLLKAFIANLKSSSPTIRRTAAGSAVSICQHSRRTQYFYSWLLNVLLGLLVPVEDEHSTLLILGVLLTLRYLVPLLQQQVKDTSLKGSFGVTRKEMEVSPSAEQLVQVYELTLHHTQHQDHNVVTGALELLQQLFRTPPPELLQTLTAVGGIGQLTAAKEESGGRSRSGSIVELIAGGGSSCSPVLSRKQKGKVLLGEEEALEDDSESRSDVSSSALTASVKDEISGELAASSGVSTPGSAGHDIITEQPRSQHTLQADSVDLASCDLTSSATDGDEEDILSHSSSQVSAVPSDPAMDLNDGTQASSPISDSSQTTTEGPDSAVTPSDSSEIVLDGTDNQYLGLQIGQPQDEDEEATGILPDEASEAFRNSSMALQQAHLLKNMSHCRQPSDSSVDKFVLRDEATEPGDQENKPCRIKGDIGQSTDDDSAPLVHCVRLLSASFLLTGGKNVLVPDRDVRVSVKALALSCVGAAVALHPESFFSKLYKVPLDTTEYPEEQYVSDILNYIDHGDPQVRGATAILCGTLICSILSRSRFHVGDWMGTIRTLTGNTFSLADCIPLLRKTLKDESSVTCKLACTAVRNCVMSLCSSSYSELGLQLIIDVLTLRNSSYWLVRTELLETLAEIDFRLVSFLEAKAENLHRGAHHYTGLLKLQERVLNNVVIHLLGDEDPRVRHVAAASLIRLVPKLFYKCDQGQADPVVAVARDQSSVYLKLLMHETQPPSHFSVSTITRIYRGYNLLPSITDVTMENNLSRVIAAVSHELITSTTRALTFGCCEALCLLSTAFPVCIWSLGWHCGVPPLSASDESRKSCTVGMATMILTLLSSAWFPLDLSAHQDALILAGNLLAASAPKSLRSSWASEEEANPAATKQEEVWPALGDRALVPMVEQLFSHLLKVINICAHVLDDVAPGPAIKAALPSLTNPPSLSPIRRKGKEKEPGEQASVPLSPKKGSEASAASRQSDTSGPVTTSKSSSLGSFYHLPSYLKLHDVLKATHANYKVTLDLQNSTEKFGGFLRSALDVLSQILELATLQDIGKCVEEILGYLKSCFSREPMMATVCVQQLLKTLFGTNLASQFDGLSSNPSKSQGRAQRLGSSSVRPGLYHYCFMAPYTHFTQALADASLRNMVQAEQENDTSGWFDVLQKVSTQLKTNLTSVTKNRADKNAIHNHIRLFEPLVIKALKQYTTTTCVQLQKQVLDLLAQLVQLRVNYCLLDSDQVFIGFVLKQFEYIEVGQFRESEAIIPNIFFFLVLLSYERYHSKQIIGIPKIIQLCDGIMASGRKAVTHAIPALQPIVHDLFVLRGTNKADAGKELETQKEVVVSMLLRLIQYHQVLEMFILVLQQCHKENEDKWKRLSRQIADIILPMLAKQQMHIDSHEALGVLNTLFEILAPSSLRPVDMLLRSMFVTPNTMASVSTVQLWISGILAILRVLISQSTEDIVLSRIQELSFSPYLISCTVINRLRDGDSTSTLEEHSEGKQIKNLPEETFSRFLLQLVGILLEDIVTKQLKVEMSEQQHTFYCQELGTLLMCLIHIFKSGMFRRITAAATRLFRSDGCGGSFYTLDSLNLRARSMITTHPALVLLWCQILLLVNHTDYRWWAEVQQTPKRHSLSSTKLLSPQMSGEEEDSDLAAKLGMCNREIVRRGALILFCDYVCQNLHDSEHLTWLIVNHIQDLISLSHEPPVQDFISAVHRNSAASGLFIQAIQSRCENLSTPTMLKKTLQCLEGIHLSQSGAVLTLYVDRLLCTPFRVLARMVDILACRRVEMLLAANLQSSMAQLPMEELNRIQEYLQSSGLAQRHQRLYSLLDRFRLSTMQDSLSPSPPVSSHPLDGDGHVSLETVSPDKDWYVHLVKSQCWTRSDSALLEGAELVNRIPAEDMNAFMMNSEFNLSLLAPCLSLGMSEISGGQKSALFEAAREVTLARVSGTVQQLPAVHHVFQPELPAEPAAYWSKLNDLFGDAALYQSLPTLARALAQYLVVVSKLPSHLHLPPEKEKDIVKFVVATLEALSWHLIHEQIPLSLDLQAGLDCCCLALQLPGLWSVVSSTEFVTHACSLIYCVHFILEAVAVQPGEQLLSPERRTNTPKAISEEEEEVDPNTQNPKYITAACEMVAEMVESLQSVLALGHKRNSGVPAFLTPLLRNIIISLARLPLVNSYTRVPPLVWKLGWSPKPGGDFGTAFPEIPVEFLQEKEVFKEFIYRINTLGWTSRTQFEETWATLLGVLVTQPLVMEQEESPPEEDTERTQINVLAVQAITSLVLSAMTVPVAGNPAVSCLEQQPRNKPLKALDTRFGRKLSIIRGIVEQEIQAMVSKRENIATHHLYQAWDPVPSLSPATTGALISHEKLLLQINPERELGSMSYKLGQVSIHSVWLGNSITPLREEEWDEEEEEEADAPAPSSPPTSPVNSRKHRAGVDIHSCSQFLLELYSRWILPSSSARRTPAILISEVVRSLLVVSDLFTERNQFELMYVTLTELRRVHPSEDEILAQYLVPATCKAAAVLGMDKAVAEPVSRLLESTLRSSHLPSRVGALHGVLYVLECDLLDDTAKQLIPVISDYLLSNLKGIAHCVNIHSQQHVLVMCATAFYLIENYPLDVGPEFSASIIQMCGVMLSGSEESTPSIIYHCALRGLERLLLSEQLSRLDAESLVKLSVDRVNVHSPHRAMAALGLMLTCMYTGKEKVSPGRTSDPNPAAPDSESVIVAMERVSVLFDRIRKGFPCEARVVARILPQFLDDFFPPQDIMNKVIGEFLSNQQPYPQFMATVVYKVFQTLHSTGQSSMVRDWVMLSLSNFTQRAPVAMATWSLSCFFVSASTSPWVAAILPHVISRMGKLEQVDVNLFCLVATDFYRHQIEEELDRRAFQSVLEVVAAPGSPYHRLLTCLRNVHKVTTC
T1 sequence (P05067 672-713 limits assumed): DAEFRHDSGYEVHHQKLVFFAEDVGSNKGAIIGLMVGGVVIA

SMILES: [3H]C([3H])([3H])Oc1ccc2c(c1)sc1nc(C(=O)Nc3cccnc3)cn12 [10-[^3H]-methoxy-N-(pyridin-3-yl)-7-thia-2,5-diazatricyclo[6.4.0.0^2,6]dodeca-1(12),3,5,8,10-pentaene-4-carboxamide]
visibility of Aβ aggregates in brain sections (Aβ aggregates): Aβ aggregates are visible

SMILES: COc1ccc2c(c1)sc1nc(C(=O)Nc3ccc(=O)n(C)n3)cn12 [10-methoxy-N-(1-methyl-6-oxo-1,6-dihydropyridazin-3-yl)-7-thia-2,5-diazatricyclo[6.4.0.0^2,6]dodeca-1(12),3,5,8,10-pentaene-4-carboxamide]
IC50 (Q46 protein aggregates): < 100 nM
visibility of mHTT aggregates in brain sections (mHTT aggregates): mHTT aggregates are visible

SMILES: COc1ccc2c(c1)sc1nc(C(=O)Nc3ccc(-n4ccnc4)nc3)cn12 [N-[6-(1H-imidazol-1-yl)pyridin-3-yl]-10-methoxy-7-thia-2,5-diazatricyclo[6.4.0.0^2,6]dodeca-1(12),3,5,8,10-pentaene-4-carboxamide]
IC50 (Q46 protein aggregates): < 100 nM

SMILES: CN(C)c1ccc(/C=C/c2nc3ccc(I)cc3[nH]2)cc1 [SBIM-3, 4-[(E)-2-(6-iodo-1H-benzimidazol-2-yl)ethenyl]-N,N-dimethylaniline]
ratio of Kd values (affinity for tau aggregates vs Aβ1-42 aggregates) [1]: 2.73
binding to NFT in sections of AD brain tissue [2]: bound NFT

Further lines, with some results ahead:

IC50 (Q46 protein aggregates): < 100 nM
SMILES: COCCOc1ccc(NC(=O)c2ccn3c(n2)nc2ccccc23)cn1 [N-[6-(2-methoxyethoxy)pyridin-3-yl]-1,8,10-triazatricyclo[7.4.0.0^2,7]trideca-2(7),3,5,8,10,12-hexaene-11-carboxamide]

IC50 (Q46 protein aggregates): < 100 nM
SMILES: CNC(=O)c1ccc(NC(=O)c2ccn3c(n2)nc2ccccc23)cn1 [N-[6-(methylcarbamoyl)pyridin-3-yl]-1,8,10-triazatricyclo[7.4.0.0^2,7]trideca-2(7),3,5,8,10,12-hexaene-11-carboxamide]

% SUV ([3]; Cerebellum, WT mice (n = 7)): 74.1 ± 7.1 % SUV
% SUV ([3]; Cerebellum, het zQ175 mice (n = 6)): 80.5 ± 6.5 % SUV
% SUV ([3]; Cerebellum, hom zQ175 mice (n = 8)): 92.3 ± 11.3 % SUV
% SUV ([3]; Cortex, WT mice (n = 7)): 67.1 ± 5.7 % SUV
% SUV ([3]; Cortex, het zQ175 mice (n = 6)): 73.4 ± 5.1 % SUV
% SUV ([3]; Cortex, hom zQ175 mice (n = 8)): 93.1 ± 9.6 % SUV
% SUV ([3]; Hippocampus, WT mice (n = 7)): 73.3 ± 6.5 % SUV
% SUV ([3]; Hippocampus, het zQ175 mice (n = 6)): 82.0 ± 6.3 % SUV
% SUV ([3]; Hippocampus, hom zQ175 mice (n = 8)): 107.1 ± 10.8 % SUV
% SUV ([3]; Striatum, WT mice (n = 7)): 71.9 ± 6.7 % SUV
% SUV ([3]; Striatum, het zQ175 mice (n = 6)): 82.7 ± 7.0 % SUV
% SUV ([3]; Striatum, hom zQ175 mice (n = 8)): 107.6 ± 9.6 % SUV
SMILES: [11CH3]Oc1ccc2c(c1)sc1nc(C(=O)Nc3cccnc3)cn12 [^11C-labeled Compound 1 of Method 1, 10-[^11C]-methoxy-N-(pyridin-3-yl)-7-thia-2,5-diazatricyclo[6.4.0.0^2,6]dodeca-1(12),3,5,8,10-pentaene-4-carboxamide]
binding of the radioligand relative to wild type ([3]; all four brain regions, mice homozygous for the zQ175 allele): Increased binding of the radioligand, relative to wild type

From patent US10765764B2, “Probes for imaging huntingtin protein” (CHDI Foundation, Inc., priority 2015, dated 2020)
